Laboratory results: the supplement of paper PMC11061612

Assays:
[1] = system: EFO-21 (Ovarian Carcinoma); experiment: Bliss excess, mean over the matrix (fraction); higher = more synergy
In short: (§1)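 Bliss excess equals the observed combination effect minus the expected value EA + EB − EA·EB, where EA and EB are the effects of each agent alone. Combination Emax is the second-highest inhibition within the matrix. Inhibition was scaled from CellTiter-Glo 2.0 luminescence, with 0 set by vehicle wells and 1 by blank wells, after 72 hours of two-drug dosing of cells plated in 1536-well plates.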

[2] = system: Mo-T (Other Blood Carcinomas); experiment: as above
In short: as §1

[3] = system: NCI-H1355 (Lung Adenocarcinoma); experiment: as above
In short: as §1

[4] = system: NCI-H1993 (Lung Adenocarcinoma); experiment: as above
In short: as §1

[5] = system: SW872 (Other Solid Carcinomas); experiment: as above
In short: as §1

[6] = system: A4-Fuk (B-Lymphoblastic Leukemia); experiment: combination Emax (second highest fraction inhibited in the dose matrix, 72 h); higher = more inhibition; extreme values may be limits of the assay
In short: as §1

[7] = system: Ca-Ski (Cervical Carcinoma); experiment: as above
In short: as §1

[8] = system: EFO-21 (Ovarian Carcinoma); experiment: as above
In short: as §1

[9] = system: KGN (Other Solid Carcinomas); experiment: as above
In short: as §1

[10] = system: KMRC-1 (Kidney Carcinoma); experiment: as above
In short: as §1

[11] = system: ME-180 (Cervical Carcinoma); experiment: as above
In short: as §1

[12] = system: ML-2 (Acute Myeloid Leukemia); experiment: as above
In short: as §1

[13] = system: MOLT-4 (T-Lymphoblastic Leukemia); experiment: as above
In short: as §1

[14] = system: MV-4-11 (Acute Myeloid Leukemia); experiment: as above
In short: as §1

[15] = system: Mo-T (Other Blood Carcinomas); experiment: as above
In short: as §1

[16] = system: NCI-H1993 (Lung Adenocarcinoma); experiment: as above
In short: as §1

[17] = system: NCI-H522 (Lung Adenocarcinoma); experiment: as above
In short: as §1

[18] = system: SKN (Other Solid Carcinomas); experiment: as above
In short: as §1

[19] = system: SNU-387 (Hepatocellular Carcinoma); experiment: as above
In short: as §1

[20] = system: SW872 (Other Solid Carcinomas); experiment: as above
In short: as §1

| SMILES | Bliss excess [1] | Bliss excess [2] | Bliss excess [3] | Bliss excess [4] | Bliss excess [5] | combination Emax [6] | combination Emax [7] | combination Emax [8] | combination Emax [9] | combination Emax [10] | combination Emax [11] | combination Emax [12] | combination Emax [13] | combination Emax [14] | combination Emax [15] | combination Emax [16] | combination Emax [17] | combination Emax [18] | combination Emax [19] | combination Emax [20] |
| --- | --- | --- | --- | --- | --- | --- | --- | --- | --- | --- | --- | --- | --- | --- | --- | --- | --- | --- | --- | --- |
| COc1cc2c(cc1OCCCCCOc1cc3c(cc1OC)C(=O)N1C=C(C)C[C@H]1C=N3)N=C[C@@H]1CC(C)=CN1C2=O [SG3199] + O=C(c1cc(Cc2n[nH]c(=O)c3ccccc23)ccc1F)N1CCN(C(=O)C2CC2)CC1 [Olaparib] (first compound max 0.001 µM, 7x7, partner max 10 µM) | -0.0709 | 0.0118 | -0.0503 | -0.0352 | -0.0209 | 0.157 | 0.0833 | 0.176 | 0.475 | 0.0927 | 0.201 | 0.436 | 0.402 | 0.402 | 0.322 | 0.0845 | 0.144 | 0.0757 | 0.104 | 0.0788 |
| Cc1cc2ncnn2cc1Nc1ncc2c(n1)n(C1CCOCC1)c(=O)n2C [AZD7648] + O=C(c1cc(Cc2n[nH]c(=O)c3ccccc23)ccc1F)N1CCN(C(=O)C2CC2)CC1 [Olaparib] (first compound max 10 µM, 7x7, partner max 10 µM) | -0.045 | -0.049 | -0.0538 | -0.0321 | -0.0126 | 0.428 | 0.142 | 0.264 | 0.601 | 0.184 | 0.154 | 0.419 | 0.233 | 0.446 | 0.382 | 0.331 | 0.17 | 0.131 | 0.259 | 0.11 |
| CN(CCO)CC[C@H](CSc1ccccc1)Nc1ccc(S(=O)(=O)NC(=O)c2ccc(N3CCC([C@@H](O)c4ccccc4-c4ccc(Cl)cc4)CC3)cc2)cc1S(=O)(=O)C(F)(F)F [AZD4320] + C1CN(CCC1(C(=O)N[C@@H](CCO)C2=CC=C(C=C2)Cl)N)C3=NC=NC4=C3C=CN4 [Capivasertib] (first compound max 1 µM, 7x7, partner max 3 µM) | -0.0827 | -0.0137 | -0.0648 | -0.0592 | -0.0237 | 0.683 | 0.766 | 0.168 | 0.323 | 0.51 | 0.507 | 0.984 | 1 | 1 | 0.697 | 0.791 | 0.049 | 0.401 | 0.213 | 0.166 |
| CN(CCO)CC[C@H](CSc1ccccc1)Nc1ccc(S(=O)(=O)NC(=O)c2ccc(N3CCC([C@@H](O)c4ccccc4-c4ccc(Cl)cc4)CC3)cc2)cc1S(=O)(=O)C(F)(F)F [AZD4320] + CC(=O)O[C@H]1C(=O)[C@@]2(C)[C@H]([C@H](OC(=O)c3ccccc3)[C@]3(O)C[C@H](OC(=O)[C@H](O)[C@@H](NC(=O)c4ccccc4)c4ccccc4)C(C)=C1C3(C)C)[C@]1(OC(C)=O)CO[C@@H]1C[C@@H]2O [Paclitaxel] (first compound max 1 µM, 7x7, partner max 3 µM) | 0.0978 | 0.163 | 0.0513 | 0.0851 | -0.0047 | 0.97 | 1 | 0.714 | 0.99 | 0.733 | 1 | 1 | 1 | 1 | 1 | 0.984 | 0.882 | 0.978 | 1 | 0.95 |
| Cc1cc2ncnn2cc1Nc1ncc2c(n1)n(C1CCOCC1)c(=O)n2C [AZD7648] + COc1cc([C@@H]2c3cc4c(cc3[C@@H](O[C@@H]3O[C@@H]5CO[C@@H](C)O[C@H]5[C@H](O)[C@H]3O)[C@H]3COC(=O)[C@H]23)OCO4)cc(OC)c1O [Etoposide] (first compound max 10 µM, 7x7, partner max 10 µM) | 0.0562 | 0.0928 | 0.0529 | -0.0083 | 0.106 | 0.937 | 0.884 | 0.438 | 0.863 | 0.478 | 0.941 | 0.955 | 1 | 1 | 0.909 | 0.79 | 0.339 | 0.784 | 0.22 | 0.817 |
| N#Cc1cnc(Nc2cc(NC[C@H]3CNCCO3)c(C(F)(F)F)cn2)cn1 [SRA737] + Nc1ccn([C@@H]2O[C@H](CO)[C@@H](O)C2(F)F)c(=O)n1 [Gemcitabine] (first compound max 10 µM, 7x7, partner max 0.3 µM) | 0.0169 | -0.0134 | 0.0299 | 0.0158 | 0.0236 | 0.976 | 0.815 | 0.585 | 0.947 | 0.733 | 0.9 | 1 | 1 | 1 | 0.737 | 0.939 | 0.855 | 0.729 | 0.663 | 0.905 |
| Cc1nc(Nc2ncc(C(=O)Nc3c(C)cccc3Cl)s2)cc(N2CCN(CCO)CC2)n1 [Dasatinib] + CC(=O)Nc1cccc(-n2c(=O)n(C3CC3)c(=O)c3c(Nc4ccc(I)cc4F)n(C)c(=O)c(C)c32)c1 [Trametinib] (first compound max 2 µM, 7x7, partner max 1 µM) | 0.0296 | -0.0835 | 0.0328 | -0.0254 | 0.101 | 0.848 | 0.774 | 0.479 | 0.8 | 0.739 | 0.476 | 0.799 | 0.424 | 0.791 | 0.137 | 0.69 | 0.251 | 0.683 | 0.511 | 0.566 |
| COc1cc2ncnc(Nc3ccc(F)c(Cl)c3)c2cc1OCCCN1CCOCC1 [Gefitinib] + CC(C)n1c(=O)n(C)c2cnc3cc(F)c(-c4ccc(OCCCN5CCCCC5)nc4)cc3c21 [AZD1390] (first compound max 10 µM, 7x7, partner max 0.3 µM) | -0.0875 | -0.0475 | -0.039 | -0.0506 | -0.025 | 0.307 | 0.292 | 0.198 | 0.368 | 0.0966 | 0.42 | 0.168 | 0.373 | 0.754 | 0.178 | 0.349 | 0.196 | 0.199 | 0.169 | 0.131 |
| C[C@@H](c1ccc2nccn2c1)n1nnc2ncc(-c3cnn(C)c3)nc21 [Savolitinib] + CC1(C)CCC(CN2CCN(c3ccc(C(=O)NS(=O)(=O)c4ccc(NCC5CCOCC5)c([N+](=O)[O-])c4)c(Oc4cnc5[nH]ccc5c4)c3)CC2)=C(c2ccc(Cl)cc2)C1 [Venetoclax] (first compound max 1 µM, 7x7, partner max 1 µM) | -0.0679 | -0.0492 | -0.0398 | -0.0306 | -0.0203 | 0.199 | 0.174 | 0.212 | 0.233 | 0.141 | 0.114 | 0.46 | 0.476 | 1 | 0.114 | 0.754 | 0.111 | 0.169 | 0.244 | 0.136 |
| CN(CCO)CC[C@H](CSc1ccccc1)Nc1ccc(S(=O)(=O)NC(=O)c2ccc(N3CCC([C@@H](O)c4ccccc4-c4ccc(Cl)cc4)CC3)cc2)cc1S(=O)(=O)C(F)(F)F [AZD4320] + C[C@@H]1COCCN1C2=NC(=NC(=C2)C3(CC3)[S@](=N)(=O)C)C4=C5C=CNC5=NC=C4 [AZD6738] (first compound max 1 µM, 7x7, partner max 10 µM) | -0.0312 | 0.0358 | -0.0273 | -0.0073 | -0.039 | 0.715 | 0.773 | 0.433 | 0.874 | 0.656 | 0.564 | 1 | 1 | 1 | 0.937 | 0.766 | 0.156 | 0.663 | 0.541 | 0.624 |
| N#Cc1cnc(Nc2cc(NC[C@H]3CNCCO3)c(C(F)(F)F)cn2)cn1 [SRA737] + CCc1c2c(nc3ccc(O)cc13)-c1cc3c(c(=O)n1C2)COC(=O)[C@]3(O)CC [SN-38] (first compound max 10 µM, 7x7, partner max 0.3 µM) | -0.0498 | -0.0363 | 0.071 | 0.0615 | -0.0142 | 0.974 | 0.992 | 0.541 | 0.836 | 0.525 | 0.95 | 1 | 1 | 0.996 | 0.821 | 0.835 | 0.635 | 0.749 | 0.548 | 0.947 |
